Usually IC50 stands for the concentration that inhibits the measured activity by half. A word on the inhibition: it is the relative decrease from the control value, in per cent.

Series [1] deals with MCF7. As to the kind of experiment: Cytotoxicity against human MCF7 cells assessed as cell viability incubated for 48 hrs by MTS assay. The series is classed as functional, cell-based. The settings on record: MCF7, 48 h.
For a further series, the system named is T-24. As to the kind of experiment: Anti-cancer activity against human T24 cells. The series is classed as functional, cell-based.
A further series relates to HL-60. As to the kind of experiment: Anti-cancer activity against human HL-60 cells. The format is functional, cell-based.
The test system of a further series is THP-1. As to the kind of experiment: Anti-cancer activity against human THP-1 cells. The format is functional, cell-based.
The next series deals with NCI-H23. As to the kind of experiment: Anti-cancer activity against human NCI-H23 cells. The format is functional, cell-based.
In another series the test system is FaDu. As to the kind of experiment: Cytotoxicity against human FaDu cells assessed as cell viability incubated for 24 hrs by CCK-8 assay. The format is functional, cell-based. In general terms: Tetrazolium assays rely on reduction of a dye to a coloured formazan, in cell work by metabolically active cells.
Series [2] in a line: Antioxidant activity assessed as DPPH radical scavenging activity incubated for 30 mins by spectrophotometric analysis. The format is functional. (DPPH is a stable violet radical that fades when it is reduced.)
The subject of series [3] is RAW264.7. As to the kind of experiment: Antiinflammatory activity in mouse RAW264.7 cells assessed as inhibition of H2O2-induced intracellular ROS production at 50 ug/ml measured after 24 hrs by DCFH-DA staining based fluorescence assay. The format is functional.
The test system of series [4] is RAW264.7. As to the kind of experiment: Antiinflammatory activity in mouse RAW264.7 cells assessed as inhibition of LPS-induced TNFalpha secretion at 50 ug/ml measured after 24 hrs. The series is classed as functional.
Series [5] relates to RAW264.7. As to the kind of experiment: Antiinflammatory activity in mouse RAW264.7 cells assessed as inhibition of LPS-induced NO production at 50 ug/ml measured after 24 hrs. The format is functional.
For series [6], the system named is NCI-H460. As to the kind of experiment: Cytotoxicity against human NCI-H460 cells assessed as cell viability by MTT assay. The series is classed as functional, cell-based.
In series [7] the test system is PC-12. As to the kind of experiment: Neuroprotection against Amyloid beta (25 to 35)-induced toxicity in rat PC-12 cells assessed as increase in cell viability at 50 uM for 24 hrs by MTT assay relative to control. The format is functional.
The subject of series [8] is PC-12. As to the kind of experiment: Neuroprotection against Amyloid beta (25 to 35)-induced toxicity in rat PC-12 cells assessed as increase in cell viability at 25 uM for 24 hrs by MTT assay relative to control. The series is classed as functional.
Series [9] has as its system PC-12. As to the kind of experiment: Neuroprotection against Amyloid beta (25 to 35)-induced toxicity in rat PC-12 cells assessed as increase in cell viability at 10 uM for 24 hrs by MTT assay relative to control. The format is functional.
The nature of series [10]: Permeability of the compound by PAMPA-BBB assay. The settings on record: read-out: permeability. The format is ADME. (In general: In PAMPA a lipid-coated filter parts donor from acceptor wells.)
The next series deals with K562. As to the kind of experiment: Anti-cancer activity against human K562 cells. The series is classed as functional, cell-based.
In another series the test system is SGC-7901. As to the kind of experiment: Anti-cancer activity against human SGC-7901 cells. The series is classed as functional, cell-based.
The test system of the next series is KB. As to the kind of experiment: Anti-cancer activity against human KB cells. The format is functional, cell-based.
Another series relates to Bel-7402. As to the kind of experiment: Anti-cancer activity against human Bel-7402 cells. The format is functional, cell-based.
For series [11], the system named is HepG2. As to the kind of experiment: Anti-cancer activity against human HepG2 cells. The format is functional, cell-based.
Series [12] has as its system MCF7. As to the kind of experiment: Anti-cancer activity against human MCF7 cells. The format is functional, cell-based.
The test system of series [13] is NCI-H460. As to the kind of experiment: Anti-cancer activity against human NCI-H460 cells. The series is classed as functional, cell-based.
A further series concerns NCI-H187. As to the kind of experiment: Anti-cancer activity against human NCI-H187 cells. The format is functional, cell-based.
The target in series [14] is Tyrosine-protein phosphatase non-receptor type 1 (Homo sapiens, UniProt P18031). As to the kind of experiment: Inhibition of PTP1B (unknown origin).
Chain of Tyrosine-protein phosphatase non-receptor type 1 (P18031 whole entry): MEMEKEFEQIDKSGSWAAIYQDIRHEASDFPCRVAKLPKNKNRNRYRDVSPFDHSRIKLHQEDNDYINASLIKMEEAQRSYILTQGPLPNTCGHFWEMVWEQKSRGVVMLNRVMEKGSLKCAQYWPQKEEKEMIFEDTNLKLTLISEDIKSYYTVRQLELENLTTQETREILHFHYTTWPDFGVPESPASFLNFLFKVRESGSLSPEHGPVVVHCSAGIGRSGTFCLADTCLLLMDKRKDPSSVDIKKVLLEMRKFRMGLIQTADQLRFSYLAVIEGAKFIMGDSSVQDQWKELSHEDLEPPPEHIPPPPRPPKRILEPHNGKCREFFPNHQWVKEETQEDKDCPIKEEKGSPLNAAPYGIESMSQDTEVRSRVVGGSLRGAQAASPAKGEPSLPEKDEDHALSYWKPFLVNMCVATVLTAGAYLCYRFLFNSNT
The subject of a further series is MDA-MB-231. As to the kind of experiment: Cytotoxicity against human MDA-MB-231 cells assessed as cell viability incubated for 72 hrs by MTT assay. The series is classed as functional, cell-based. The following applies: MDA-MB-231, 72 h.
Series [15] deals with HepG2. As to the kind of experiment: Cytotoxicity against human HepG2 cells assessed as cell viability incubated for 72 hrs by MTT assay. The following applies: HepG2, 72 h. The format is functional, cell-based.
The test system of another series is HT-29. As to the kind of experiment: Cytotoxicity against human HT-29 cells assessed as cell viability incubated for 72 hrs by MTT assay. The format is functional, cell-based. The following applies: HT-29, 72 h.
The target of another series is Alpha amylase (Homo sapiens, UniProt P0DUB6). As to the kind of experiment: Inhibition of alpha-amylase (unknown origin) by HPLC analysis.
Chain of Alpha amylase (P0DUB6 whole entry): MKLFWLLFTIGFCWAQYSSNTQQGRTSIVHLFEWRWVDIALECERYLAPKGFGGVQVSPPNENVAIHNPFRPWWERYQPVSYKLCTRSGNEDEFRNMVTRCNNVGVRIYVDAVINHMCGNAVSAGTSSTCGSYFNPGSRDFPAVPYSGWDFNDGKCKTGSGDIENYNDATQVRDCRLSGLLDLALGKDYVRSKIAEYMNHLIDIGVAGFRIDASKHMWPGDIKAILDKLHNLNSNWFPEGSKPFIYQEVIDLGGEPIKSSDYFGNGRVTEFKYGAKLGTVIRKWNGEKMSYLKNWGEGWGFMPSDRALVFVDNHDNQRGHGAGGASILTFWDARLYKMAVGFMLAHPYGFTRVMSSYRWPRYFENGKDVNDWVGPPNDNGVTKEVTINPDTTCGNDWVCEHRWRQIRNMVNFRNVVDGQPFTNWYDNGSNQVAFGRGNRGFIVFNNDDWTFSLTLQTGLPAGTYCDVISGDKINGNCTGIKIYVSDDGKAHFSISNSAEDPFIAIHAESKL

`COc1ccc(CCc2cc3c(c(OC)c2)C[C@@H](CO)[C@H](c2ccc(O)c(OC)c2)C3)cc1`: the IC50 with MCF7 [1] amounted to 38.5 µM.
Regarding `COc1ccc(CCc2cc(OC)c(OC)c(OC)c2)cc1O`, the IC50 with T-24 came to 0.46 µM.
Turning to `COc1cc(CCc2cc(OC)c(O)c(OC)c2)ccc1O` [MOSCATILIN], the IC50 in the series on HL-60 came to 0.082 µM; with THP-1, 226 µM; with NCI-H23, 33.4 µM; in the series with FaDu, 2.55 µM; in series [2], 17.1 µM.
Take `COc1cc(CC2c3cc(O)c(O)c(OC)c3Oc3cc(O)c4c(c32)CCc2cc(O)ccc2-4)ccc1O` (centres undefined): the inhibition at 50 µg/mL with RAW264.7 [3] was determined as 65%; in the series with RAW264.7 [4] it was 70%; with RAW264.7 [5], 65%.
On to `COc1ccc(CCc2cc(OC)c(O)c(OC)c2)cc1OC`, for which the IC50 in the series on NCI-H23 was 145 µM; in the series on NCI-H460 [6] it was 127 µM; in series [2] it was 14 µM. Moreover, the Activity in the series on PC-12 [7] stood at 58.89%; with PC-12 [8], 55.02%; in the series with PC-12 [9], 52.72%. The Papp in [10] worked out at 4.1 ×10⁻⁶ cm/s.
`COc1cc(O)cc(CCc2ccc(O)c(OC)c2)c1` [GIGANTOL]: the half-maximal inhibitory concentration (IC50) with HL-60 stood at 10.6 µM; in the series on THP-1, 23.3 µM; in the series with K562, 63.9 µM; in the series on SGC-7901 it was 17.4 µM; in the series with KB it was 61.9 µM; in the series with Bel-7402, 13 µM. Besides, the IC50 was 9.3 µM in the series with HepG2 [11]; 67.8 µM in the series with MCF7 [12]; 76.9 µM with NCI-H460 [13]; 235 µM in the series with NCI-H187; 73.3 µM in series [14]; 17.7 µM in series [2].
In the case of `COc1ccc(CCc2cc(O)c(O)c(OC)c2)cc1`, the IC50 with HL-60 came to 10.7 µM; in the series with MDA-MB-231, 80.5 µM; with HepG2 [15], 138 µM; in the series with HT-29, 88.2 µM; at Alpha amylase, 5990 µM.

The record behind these values is ChEMBL document CHEMBL5244253, “Recent research progress on natural small molecule bibenzyls and its derivatives in Dendrobium species” (Eur J Med Chem, 2020).
